Measurements: article PMC6253949, “The Inhibitory Action of Kohamaic Acid A Derivatives on Mammalian DNA Polymerase β” (Molecules, 2008)
Where two headings read alike, the source gives them in different places. Blank lines part the entries; values can stand above or below the compound they belong to.

How the values were obtained:
Calf DNA polymerase α [1] = target: T1, Calf DNA polymerase α (Bos taurus, UniProt A0AAA9THK8); assay: DNA polymerase assay, calf pol α; assay type: biochemical
Source text: (§1) Pol α was purified from calf thymus by immuno-affinity column chromatography as described by Tamai et al.. Recombinant rat pol β was purified from E. coli JMpβ5 as described by Date et al.. The human pol γ catalytic gene was cloned into pFastBac. Histidine-tagged enzyme was expressed using the BAC-TO-BAC HT Baculovirus Expression System according to the supplier's manual (LIFE TECHNOLOGIES, MD, USA) and purified using ProBoundresin (Invitrogen Japan, Tokyo, Japan). Human pols δ and ε were purified by the nuclear fractionation of human peripheral blood cancer cells (Molt-4) using the second subunit of pols δ and ε-conjugated affinity column chromatography, respectively. Recombinant human pols η and ι tagged with His6 at their C-terminal were expressed in SF9 insect cells using the baculovirus expression system, and were purified as described previously. A truncated form of pol κ (i.e., hDINB1DC) with 6 x His-tags attached at the C-terminal was overproduced using the BAC-to-BAC Baculovirus Expression System kit (GIBCO BRL, MD, USA) and purified as described previously. Recombinant human His-pol λ was overexpressed and purified according to a method described previously. Fish pol δ was purified from the testis of cherry salmon (Oncorhynchus masou). Pol I (α-like) from a higher plant, cauliflower inflorescence, was purified according to the methods outlined by Sakaguchi et al.. The Klenow fragment of pol I from E. coli was purchased from Worthington Biochemical Corp. (Freehold, NJ, USA). Taq pol, T4 pol, T7 RNA polymerase and T4 polynucleotide kinase were purchased from Takara (Kyoto, Japan). Bovine pancreas deoxyribonuclease I (DNase I) was obtained from Stratagene Cloning Systems (La Jolla, CA, USA).
(§2) The reaction mixtures for pol α, pol β, fish pol δ, plant pol I (α-like) and prokaryotic pols were described previously, and those for pol γ, and pols δ and ε were as described by Umeda et al. and Ogawa et al., respectively. The reaction mixtures for pols η, ι and κ were the same as for pol α, and the reaction mixture for pol λ was the same as that for pol β.
For pols, poly(dA)/oligo(dT)12-18 (A/T = 2/1) and dTTP were used as the DNA template-primer and nucleotide (i.e., dNTP) substrate, respectively. KA-A analogues (i.e., compounds 1–12) were dissolved in distilled dimethyl sulfoxide (DMSO) at various concentrations and sonicated for 30 sec. Aliquots of 4 μL of sonicated samples were mixed with 16 μL of each enzyme (final amount 0.05 units) in 50 mM Tris-HCl (pH 7.5) containing 1 mM dithiothreitol, 50% glycerol and 0.1 mM EDTA, and kept at 0 °C for 10 min. […] Activity without the inhibitor was considered 100%, and the remaining activity at each concentration of the inhibitor was determined relative to this value. […]

Rat DNA polymerase β [2] = target: T2, Rat DNA polymerase β (Rattus norvegicus, UniProt P06766); design: method as in PMID 12758147; details: reported previously; read-out: IC50 value, pol β; cited from earlier work
T2 construct: made in house; host or cells: E. coli JMpβ5

Calf DNA polymerase α [3] = target: T1, Calf DNA polymerase α; design: method as in PMID 12758147; details: reported previously; read-out: IC50 value, pol α; cited from earlier work
Rat DNA polymerase β [4] = target: T2, Rat DNA polymerase β; assay: DNA polymerase assay, rat pol β; assay type: biochemical; details: 10 and 100 μM of compound (Figure 2B)
Source text: as §1, §2
For pols, poly(dA)/oligo(dT)12-18 (A/T = 2/1) and dTTP were used as the DNA template-primer and nucleotide (i.e., dNTP) substrate, respectively. KA-A analogues (i.e., compounds 1–12) were dissolved in distilled dimethyl sulfoxide (DMSO) at various concentrations and sonicated for 30 sec. Aliquots of 4 μL of sonicated samples were mixed with 16 μL of each enzyme (final amount 0.05 units) in 50 mM Tris-HCl (pH 7.5) containing 1 mM dithiothreitol, 50% glycerol and 0.1 mM EDTA, and kept at 0 °C for 10 min. These inhibitor-enzyme mixtures (8 μl) were added to 16 μL of each of the enzyme standard reaction mixtures, and incubation was carried out at 37 °C for 60 min, except for Taq pol, which was incubated at 74 °C for 60 min. Activity without the inhibitor was considered 100%, and the remaining activity at each concentration of the inhibitor was determined relative to this value. One unit of pol activity was defined as the amount of enzyme that catalyzed the incorporation of 1 nmol of dNTP (i.e., dTTP) into synthetic DNA template-primers in 60 min at 37 °C under the normal reaction conditions for each enzyme.

[5] = system: double-stranded DNA (dsDNA); assay: Thermal transition (Tm) of double-stranded DNA; assay type: binding; details: compound 11 at 200 μM; data not shown
Description: The Tm of dsDNA with an excess amount of compound 11 (200 μM) was measured using a spectrophotometer equipped with a thermoelectric cell holder.

HL-60 cells = assay: HL-60 cancer cell growth, MTT assay; assay type: cell-based, human; details: 50 μM, 24 hr
Description: To investigate the effects of KA-A derivatives in cultured cells, we used a human cancer cell line, HL-60, human promyelocytic leukemia cells (IFO 050022), supplied by the Health Science Research Resources Bank (Osaka, Japan). The cells were routinely cultured in RPMI 1640 medium supplemented with 10% fetal bovine serum, 100 μg/mL streptomycin, 100 unit/mL penicillin, and 1.6 mg/mL NaHCO3. The cells were cultured at 37 °C in standard medium in a humidified atmosphere of 5% CO2-95% air. The rate of the cancer cell growth of the compound was investigated as follows: high concentrations (10 mM) of the compounds were dissolved in DMSO and stocked. Approximately 1 x 10^4 cells per well were inoculated in 96-well micro plates, and then the compound stock solution was diluted to various concentrations, and applied to each well. After incubation for 24 hr, the survival rate was determined by MTT (3-(4,5-dimethylthiazol-2-yl)-2,5-diphenyl tetrazolium bromide) assay.

T1 sequence (Q58D13 whole entry): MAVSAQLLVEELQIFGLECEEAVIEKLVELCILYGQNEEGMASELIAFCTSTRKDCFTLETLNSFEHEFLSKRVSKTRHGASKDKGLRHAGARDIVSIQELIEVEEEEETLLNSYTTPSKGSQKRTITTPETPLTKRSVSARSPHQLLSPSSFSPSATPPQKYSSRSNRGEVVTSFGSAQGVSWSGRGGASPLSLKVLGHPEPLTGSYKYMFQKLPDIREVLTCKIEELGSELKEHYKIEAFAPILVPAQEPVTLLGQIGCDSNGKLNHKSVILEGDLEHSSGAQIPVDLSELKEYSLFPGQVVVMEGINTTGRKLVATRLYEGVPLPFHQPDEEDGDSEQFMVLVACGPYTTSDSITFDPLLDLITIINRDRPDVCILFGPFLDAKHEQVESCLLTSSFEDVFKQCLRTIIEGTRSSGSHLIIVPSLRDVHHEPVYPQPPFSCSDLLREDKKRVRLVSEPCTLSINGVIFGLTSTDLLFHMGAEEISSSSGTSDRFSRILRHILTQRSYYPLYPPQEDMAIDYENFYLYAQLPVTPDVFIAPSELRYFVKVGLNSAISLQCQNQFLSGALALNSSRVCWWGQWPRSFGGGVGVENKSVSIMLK
T1 sequence (A0AAA9THK8 entry or part of it): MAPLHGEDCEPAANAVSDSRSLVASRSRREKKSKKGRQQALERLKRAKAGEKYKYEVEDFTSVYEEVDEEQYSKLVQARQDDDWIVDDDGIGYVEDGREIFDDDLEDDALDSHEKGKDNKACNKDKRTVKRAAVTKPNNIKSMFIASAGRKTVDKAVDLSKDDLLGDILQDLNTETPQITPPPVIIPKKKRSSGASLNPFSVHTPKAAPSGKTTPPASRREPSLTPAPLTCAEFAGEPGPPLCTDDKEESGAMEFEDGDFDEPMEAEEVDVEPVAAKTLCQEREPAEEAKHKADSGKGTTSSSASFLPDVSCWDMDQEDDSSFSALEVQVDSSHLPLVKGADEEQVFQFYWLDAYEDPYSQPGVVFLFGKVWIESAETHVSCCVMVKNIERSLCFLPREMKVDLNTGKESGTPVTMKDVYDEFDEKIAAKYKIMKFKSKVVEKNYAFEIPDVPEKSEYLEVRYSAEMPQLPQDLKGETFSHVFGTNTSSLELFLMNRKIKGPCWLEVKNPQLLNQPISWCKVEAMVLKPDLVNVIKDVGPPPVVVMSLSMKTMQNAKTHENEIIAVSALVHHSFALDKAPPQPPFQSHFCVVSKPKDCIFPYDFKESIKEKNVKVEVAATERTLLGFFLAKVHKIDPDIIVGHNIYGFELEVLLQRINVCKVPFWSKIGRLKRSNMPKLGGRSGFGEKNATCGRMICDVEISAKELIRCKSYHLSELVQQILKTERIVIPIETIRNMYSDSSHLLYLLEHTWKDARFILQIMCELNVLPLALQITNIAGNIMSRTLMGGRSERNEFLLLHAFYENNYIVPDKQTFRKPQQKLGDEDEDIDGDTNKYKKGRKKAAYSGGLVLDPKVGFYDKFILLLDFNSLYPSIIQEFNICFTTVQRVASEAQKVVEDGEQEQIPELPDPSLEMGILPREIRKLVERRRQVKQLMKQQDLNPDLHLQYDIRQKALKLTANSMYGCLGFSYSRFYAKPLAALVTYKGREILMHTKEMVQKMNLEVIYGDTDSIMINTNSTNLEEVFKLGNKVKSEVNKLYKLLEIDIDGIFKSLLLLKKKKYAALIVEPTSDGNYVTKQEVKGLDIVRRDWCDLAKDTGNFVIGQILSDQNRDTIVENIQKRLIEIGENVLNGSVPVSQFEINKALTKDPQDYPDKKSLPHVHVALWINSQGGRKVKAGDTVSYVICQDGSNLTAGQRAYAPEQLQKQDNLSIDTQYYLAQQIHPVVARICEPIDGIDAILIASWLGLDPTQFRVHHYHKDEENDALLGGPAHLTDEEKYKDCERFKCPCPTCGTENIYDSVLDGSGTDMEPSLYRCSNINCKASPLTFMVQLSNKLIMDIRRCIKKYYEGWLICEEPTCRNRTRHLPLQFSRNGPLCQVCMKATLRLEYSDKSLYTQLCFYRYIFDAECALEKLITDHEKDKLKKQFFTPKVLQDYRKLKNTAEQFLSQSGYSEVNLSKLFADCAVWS
T1 sequence (A0JNF4 entry or part of it, further chain): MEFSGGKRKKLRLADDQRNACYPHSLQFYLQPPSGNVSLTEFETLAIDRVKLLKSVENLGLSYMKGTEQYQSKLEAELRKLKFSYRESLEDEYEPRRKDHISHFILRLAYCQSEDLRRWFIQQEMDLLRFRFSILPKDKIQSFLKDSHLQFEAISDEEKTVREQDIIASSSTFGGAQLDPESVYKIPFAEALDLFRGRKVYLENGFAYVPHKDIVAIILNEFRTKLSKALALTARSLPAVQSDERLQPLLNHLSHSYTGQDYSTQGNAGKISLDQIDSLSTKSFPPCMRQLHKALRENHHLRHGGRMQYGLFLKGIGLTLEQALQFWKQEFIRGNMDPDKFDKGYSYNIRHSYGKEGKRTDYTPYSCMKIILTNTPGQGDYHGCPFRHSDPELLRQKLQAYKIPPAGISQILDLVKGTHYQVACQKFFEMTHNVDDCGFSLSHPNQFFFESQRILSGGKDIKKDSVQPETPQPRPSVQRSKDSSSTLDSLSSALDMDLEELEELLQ
T1 sequence (A0A3Q1MF00 entry or part of it, further chain): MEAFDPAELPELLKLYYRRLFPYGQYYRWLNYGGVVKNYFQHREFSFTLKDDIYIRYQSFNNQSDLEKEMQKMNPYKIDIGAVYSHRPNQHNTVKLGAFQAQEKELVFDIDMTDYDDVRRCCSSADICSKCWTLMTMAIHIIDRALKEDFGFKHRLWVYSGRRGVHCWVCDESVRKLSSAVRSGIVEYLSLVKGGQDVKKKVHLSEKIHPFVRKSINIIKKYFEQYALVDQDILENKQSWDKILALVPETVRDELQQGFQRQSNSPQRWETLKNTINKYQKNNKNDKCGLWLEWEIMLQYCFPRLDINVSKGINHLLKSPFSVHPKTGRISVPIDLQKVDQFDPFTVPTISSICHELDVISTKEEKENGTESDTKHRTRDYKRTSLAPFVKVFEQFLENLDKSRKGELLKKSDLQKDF

SMILES: C[C@@]1(CO)[C@H](O)CC[C@@]2(C)[C@H]1CC[C@H]1C[C@@H]3C[C@@]12CC[C@]3(O)CO [aphidicolin, reference compound]
IC50 (Calf DNA polymerase α [1]): 40 µM

SMILES: CC(C)=CCC[C@@]1(C)CCC[C@]2(C)[C@@H](CC/C(C)=C/C(=O)O)C(C)=CC[C@@H]12 [compound 1, kohamaic acid A]
IC50 (Rat DNA polymerase β [2]): 8.4 µM
IC50 (Calf DNA polymerase α [3]): 7.6 µM

Inhibitory effect on pol α compared with KA-A (Calf DNA polymerase α [1]; 10 and 100 μM of compound (Figure 2A)): as strong as that of KA-A
Inhibitory effect on pol β compared with KA-A (Rat DNA polymerase β [4]): as strong as that of KA-A
SMILES: CC1=CC[C@H]2C(C)(C)CCC[C@]2(C)[C@H]1CCCCCCCCC(=O)O (relative stereo) [compound 9, (1S*,4aS*,8aS*)-9-(1,4,4a,5,6,7,8,8a-octahydro-2,5,5,8a-tetramethylnaphthalen-1-yl)nonanoic acid]

SMILES: CC[n+]1c(-c2ccccc2)c2cc(N)ccc2c2ccc(N)cc21 [ethidium bromide, reference compound]
Thermal transition of Tm of dsDNA [5]: clear thermal transition

SMILES: CC1=CC[C@H]2C(C)(C)CCC[C@]2(C)[C@H]1CCCCCCCCCCCCCCCCCCCCC(=O)O (relative stereo) [compound 12, (1S*,4aS*,8aS*)-21-(1,4,4a,5,6,7,8,8a-octahydro-2,5,5,8a-tetramethylnaphthalen-1-yl)henicosanoic acid]
Growth inhibitory effect on HL-60 cells, rank among compounds tested (HL-60 cells): second

SMILES: CC1=CC[C@H]2C(C)(C)CCC[C@]2(C)[C@H]1CCCCCCCCCCCCC(=O)O (relative stereo) [compound 10, (1S*,4aS*,8aS*)-13-(1,4,4a,5,6,7,8,8a-octahydro-2,5,5,8a-tetramethylnaphthalen-1-yl)tridecanoic acid]
Growth inhibitory effect on HL-60 cells, rank among compounds tested (HL-60 cells): third strongest
